Measurements published in patent publication US12508275B2, “Neomycin based compounds, and pharmaceutical use thereof” (UNIVERSITÉ COTE D'AZUR, priority 2019, dated 2025).

Tests used:
[1] = test system: OCT4, NANOG, SOX2 expression in GB5; assay: OCT4, NANOG, SOX2 pluripotency marker immunofluorescence in GB5; type: cell-based, human; settings: GB5, 20 uM
[2] = test system: Patient derived GSC (GB5); assay: Effect of compound treatment on GSC phenotype (adhesion, morphology), GB5; type: cell-based, human; settings: GB5, 10 uM, three days
Excerpt: FIG. 1: phase contrast images of GB5 morphology untreated (CTL DMSO) or treated with the indicated compound (“Cpd” denotes compound) at the indicated concentration. Control cells grow as non-adherent spheroids composed of numerous GSC. When differentiated the cells become adherent and spread on the culture dish.
B—Cell culture: Patient-derived cells GB5 were isolated from surgical resection of human primary GBM provided by the department of neurosurgery of the University Hospital of Nice. TG6 (patient-derived cell from primary GBM) and HNNSC25 (Human Normal Neural Stem Cells) have been provided by Dr Hervé Chneiweiss, University of Pierre and Marie Curie, Paris. The resulting primary cultures (GB5, TG6, HNNSC25) were grown in NS34+ medium containing EGF and bFGF (DMEM-F12 1/1 ratio, 10 mM glutamine, 10 mM Hepes, 0.025% Sodium bicarbonate, N2, G5, and B27).
Patient derived GSC (GB5) were treated with growing concentration of Compounds 9a-b and 18a-b (10 to 100 uM) during three days). […] Similar results have been obtained with TG6.

[3] = test system: GSC expressing a luciferase gene (GB1-luc) brain tumors; assay: Orthotopic GB1-luc xenograft, treatment of already formed tumors; type: in vivo, nude mice; settings: 7.5 mg/kg three times a week, live imaging, vs DMSO; 11th week P value=0,017
Experimental: FIG. 3: Nude mice were orthotopically xenografted by luminescent patient derived GSC. (A-B) Two weeks following injections, mice were intraperitoneally injected with 10 mg/kg (n=4), 7.5 mg/kg (n=4) or 5 mg/kg (n=4) of Compound 9a or vehicle alone as control (ctl n=10). A) graphical representation of the average of tumor growth in the control group (n=10) and in each Compound 9a treated groups. B) Survival of the whole population of mice of the untreated and treated groups were compared using a log rank test according to Kaplan Meier method. (R command, see World Wide Web: biostatgv.sentiweb.fr/?module=tests/surv). The solid line represents the survival rate of control untreated mice. The dotted line represents the survival rate of mice treated by compound 9a. C) Mice treatment with compound 9a when the tumors were already formed. Tumor growth representation in mice, treated either with DMSO (control: -♦-) or Compound 9a (-▪-). Tumor growth was controlled every week by live imaging. The solid line represents the tumor growth in control untreated mice. The dotted line represents the tumor growth in mice treated by compound 9a.
To further determine whether Compound 9a might also alter tumor growth of tumors that were already formed before treatment, 50000 GSC expressing a luciferase gene (GB1-luc) for luminescent live imaging were injected in the brain of 12 nude mice. […]

In the case of `NCCCCNCCCNC(=O)c1csc(-c2csc(CCNC(=O)CCc3cn(CC4OC(OC5C(O)C(N)CC(N)C5OC5OC(CN)C(O)C(O)C5N)C(O)C4OC4OC(CN)C(O)C(O)C4N)nn3)n2)n1` (stereo not drawn) [Compound 9a, N-(3-((4-Aminobutyl)amino)propyl)-2′-(2-(3-(1-methyl-1H-1,2,3-triazol-4-yl)propanamido)ethyl)-[2,4′-bithiazole]-4-carboxamide-neomycin], the “OCT4, NANOG and SOX2 expression” value [1] is reported as “down regulation”, the “adhesion and changes in GSC morphology” value [2] is reported as “induced adhesion and changes in GSC morphology” and the “growth of tumors already formed before treatment” value [3] is reported as “repressed tumor growth”.
